Measured values taken from ChEMBL document CHEMBL3244341, “Potential antiinflammatory compounds. 2. Acidic antiinflammatory 1,2-benzisoxazoles” (J Med Chem, 1979).
Calls of active or inactive are those of the source. The calls are words filed in the database; no cut-off is given here.

How the values were obtained:
Rattus norvegicus [1] = assay: Antiinflammatory activity in rat assessed as reduction in carrageenan-induced foot edema at 50 mg/kg, po; format: functional
Rattus norvegicus [2] = assay: Antiinflammatory activity in rat assessed as reduction in carrageenan-induced foot edema at 50 mg/kg, po relative to phenylbutazone-treated control; format: functional
[3] = Toxicity in po dosed mouse; format: organism-based; details: in vivo
Rattus norvegicus [4] = species: Rattus norvegicus; assay: Antiinflammatory activity against mycobacterial adjuvant-induced arthritis in albino rat assessed as reduction in foot swelling by micrometer analysis; format: functional, organism-based
Rattus norvegicus [5] = assay: Antiinflammatory activity in rat assessed as reduction in carrageenan-induced foot edema at 25 mg/kg, po; format: functional
Rattus norvegicus [6] = assay: Antiinflammatory activity in rat assessed as reduction in carrageenan-induced foot edema at 50 mg/kg, po relative to hydrocortisone-treated control; format: functional
Rattus norvegicus [7] = assay: Antiinflammatory activity in rat assessed as reduction in carrageenan-induced foot edema at 50 mg/kg, po bid administered 3 hrs and again 0.5 hrs prior to carrageenan challenge; format: functional
Rattus norvegicus [8] = assay: Antiinflammatory activity in rat assessed as reduction in carrageenan-induced foot edema at 50 mg/kg, po bid administered 3 hrs and again 0.5 hrs prior to carrageenan challenge relative to phenylbutazone-treated control; format: functional

CC(C(=O)O)c1ccc2c(-c3ccc(F)cc3)noc2c1 (configuration not stated)
inhibition in vivo at 50 mg/kg (Rattus norvegicus [1]): 37%
inhibition in vivo at 50 mg/kg (Rattus norvegicus [2]): 57%
LD50 [3]: 400 mg/kg

CC(C(=O)O)c1cccc2c(-c3ccc(Cl)cc3)noc12 (configuration not stated)
inhibition (Rattus norvegicus [4]): Active
inhibition in vivo at 25 mg/kg (Rattus norvegicus [5]): 46%
inhibition in vivo at 50 mg/kg (Rattus norvegicus [2]): 48%
LD50 [3]: 200 mg/kg

O=C(O)Cc1cccc2c(-c3ccc(Cl)cc3)noc12
inhibition in vivo at 50 mg/kg (Rattus norvegicus [1]): 36%
inhibition in vivo at 50 mg/kg (Rattus norvegicus [2]): 49%
LD50 [3]: 600 mg/kg

CC(C(=O)O)c1ccc2onc(-c3ccc(Cl)cc3)c2c1 (configuration not stated)
inhibition in vivo at 50 mg/kg (Rattus norvegicus [1]): 18%
LD50 [3]: 800 mg/kg
inhibition in vivo at 50 mg/kg (Rattus norvegicus [6]): 38%

CC(C(=O)O)c1cccc2c(-c3ccccc3)noc12 (configuration not stated)
inhibition in vivo at 50 mg/kg (Rattus norvegicus [1]): 42%
inhibition in vivo at 50 mg/kg (Rattus norvegicus [2]): 32%
LD50 [3]: 1600 mg/kg

CC(C(=O)O)c1ccc2c(-c3ccc(Cl)cc3)noc2c1 (configuration not stated)
inhibition in vivo at 50 mg/kg (Rattus norvegicus [1]): 46%
LD50 [3]: 600 mg/kg
inhibition in vivo at 50 mg/kg (Rattus norvegicus [6]): 38%

O=C(O)Cc1ccc2onc(-c3ccc(Cl)cc3)c2c1
LD50 [3]: 600 mg/kg
inhibition in vivo at 50 mg/kg (Rattus norvegicus [7]): 22%
inhibition in vivo at 50 mg/kg (Rattus norvegicus [8]): 36%
